Patent US8507544B2, “Bi-aryl amide compounds as CRTh2 receptor modulators” (Astrazeneca AB, priority 2007, dated 2013)
Structures can show the parent of a compound that is named as a salt. One block for each compound: values may come before it.

What was measured:
[1] = system: human hepatocytes; experiment: Determination of metabolic intrinsic clearance (CLint) using human hepatocytes; assay type: in vitro ADME; conditions: 1 μM substrate, 37° C., n=3
Method: Compound stocks were prepared in dimethyl sulfoxide at 100-fold incubation concentration (100 μM). 10 μl of this 100 μM stock was added to a vial containing 490 μl of hepatocyte suspension buffer (without serum). A vial containing either human hepatocytes at a concentration of 2 million viable cells/ml was pre-incubated for 5 min in a shaking (80 oscillations/min) water bath at 37° C. along with the vial containing the drug/buffer mix.
Reactions were initiated by adding 500 μl of hepatocyte suspension to the 500 μl of drug/buffer mix (giving a final substrate concentration of 1 μM at 1% v/v dimethyl sulfoxide). Aliquots (40 μl) were removed at 5, 15, 30, 45, 60, 75 90 & 120 min and reactions were quenched in 80 μl of ice-cold methanol. Samples were subsequently frozen for 1 h at −20° C. and then centrifuged at 2000 g for 20 min at 4° C. The supernatants were removed and analysed by MS/MS and Clint was estimated from the slope of a natural Log of MS/MS response versus time plot. Using physiological scaling factors to account for hepatocellularity and liver weight in the human (Ito and Houston, 2004) hepatic blood clearance was predicted (Clh) using the method outlined by Riley et al., 2005. Typical acid drugs showing an intrinsic clearance value in this assay of <2 μl/min/e^6 cells show robust half lives in man consistent with a once-daily dose intervals. […]

[2] = biological target: T1, rhCRTh2 (Homo sapiens, UniProt Q9Y5Y4); experiment: Ligand binding assay ([3H]PGD2, SPA, HEK cell membranes); conditions: [3H]PGD2 binding to HEK cell membranes containing CRTh2, RT 2 hours
T1 construct: expressed in transfected cells; host or cells: HEK cells (membrane preparation)
T1 sequence (Q9Y5Y4 1-395): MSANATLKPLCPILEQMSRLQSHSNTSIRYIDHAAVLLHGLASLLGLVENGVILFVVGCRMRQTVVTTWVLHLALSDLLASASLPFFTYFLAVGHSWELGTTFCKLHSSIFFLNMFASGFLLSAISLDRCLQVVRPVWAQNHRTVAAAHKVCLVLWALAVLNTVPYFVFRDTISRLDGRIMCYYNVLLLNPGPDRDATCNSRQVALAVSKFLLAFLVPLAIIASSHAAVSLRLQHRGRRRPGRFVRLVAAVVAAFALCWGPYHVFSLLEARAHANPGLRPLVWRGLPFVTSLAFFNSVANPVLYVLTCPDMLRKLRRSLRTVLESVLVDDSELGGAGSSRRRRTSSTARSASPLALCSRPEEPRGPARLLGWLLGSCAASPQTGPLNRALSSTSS
Method: HEK cells expressing rhCRTh2/Gα16 were routinely maintained in DMEM containing 10% Foetal Bovine Serum (HyClone), 1 mg/ml geneticin, 2 mM L-glutamine and 1% non-essential amino acids. For the preparation of membranes, the adherent transfected HEKcells were grown to confluence in two layer tissue culture factories (Fisher, catalogue number TKT-170-[MUT]). Maximal levels of receptor expression were induced by addition of 500 mM sodium butyrate for the last 18 hours of culture. The adherent cells were washed once with phosphate buffered saline (PBS, 50 ml per cell factory) and detached by the addition of 50 ml per cell factory of ice-cold membrane homogenisation buffer [20 mM HEPES (pH 7.4), 01. mM dithiothreitol, 1 mM EDTA, 0.1 mM phenyl methyl sulphonyl fluoride and 100 μg/ml bacitracin]. […] The final pellet was re-suspended in 4 ml of membrane homogenisation buffer per cell factory used and the protein content determined. […] (The optimum coating concentrations were determined for each batch of membranes) The beads were pelleted by centrifugation (800×g for 7 minutes at 4° C.), washed once with assay buffer (50 mM HEPES pH 7.4 containing 5 mM magnesium chloride) and finally re-suspended in assay buffer at a bead concentration of 10 mg/ml. […] The assay plate was incubated at RT for 2 hours and counted on a Wallac Microbeta liquid scintillation counter (1 minute per well).

[3] = Water uptake by GVS (gravimetric vapour sorption); assay type: physicochemical; conditions: between RH of 0% -80%, as measured by GVS
Method: • XRPD data were collected using either a PANalytical CubiX PRO machine or a Philips X-Pert MPD machine. • XRPD—PANalytical CubiX PRO • Data was collected with a PANalytical CubiX PRO machine in θ-θ configuration over the scan range 2° to 40° 2θ with 100-second exposure per 0.02° increment. The X-rays were generated by a copper long-fine focus tube operated at 45 kV and 40 mA. The wavelength of the copper X-rays was 1.5418 Å. The data was collected on zero background holders on which ˜2 mg of the compound was placed. The holder was made from a single crystal of silicon, which had been cut along a non-diffracting plane and then polished on an optically flat finish. […] The X-rays incident upon this surface were negated by Bragg extinction. • DSC thermograms were measured using a TA Q1000 Differential Scanning Calorimeter, with aluminium pans and pierced lids. […] The procedure was carried out under a flow of nitrogen gas (50 ml/min) and the temperature studied from 25 to 300° C. at a constant rate of temperature increase of 10° C. per minute. • GVS profiles were measured using a Dynamic Vapour Sorption DVS-1 instrument. The solid sample ca. 1-5 mg was placed into a glass vessel and the weight of the sample was recorded during a dual cycle step method (40 to 90 to 0 to 90 to 0% relative humidity (RH), in steps of 10% RH).

Clint [1]: < 1 μl/min/e^6 | pIC50 [2]: 8.4
Compound: C[C@H](Oc1ccc(F)cc1-c1ccc(C(=O)N2CCCC2(C)C)c(Cl)c1)C(=O)O [Example 1, (2S)-2-({3′-chloro-4′-[(2,2-dimethylpyrrolidin-1-yl)carbonyl]-5-fluorobiphenyl-2-yl}oxy)propanoic acid]

water uptake ([3]; listed as example 2 polymorph A): 0.6%
Compound: C[C@H](Oc1ccc(F)cc1-c1ccc(C(=O)N2CCCC2(C)C)c(Cl)c1)C(=O)O [Example 2, (2S)-2-({3′-chloro-4′-[(2,2-dimethylpyrrolidin-1-yl)carbonyl]-5-fluorobiphenyl-2-yl}oxy)propanoic acid 2-methylpropan-2-amine salt]

water uptake ([3]; listed as example 4 polymorph A): 0.7%
Compound: C[C@H](Oc1ccc(F)cc1-c1ccc(C(=O)N2CCCC2(C)C)c(Cl)c1)C(=O)O [Example 4, (2S)-2-({3′-chloro-4′-[(2,2-dimethylpyrrolidin-1-yl)carbonyl]-5-fluorobiphenyl-2-yl}oxy)propanoic acid crystaline free acid]
